Usually ED50 stands for the midpoint of the dose-response relation.

Active and inactive are the calls of the source. The calls are words filed in the database; no cut-off is given here.

Data set [1] deals with Rattus norvegicus. Briefly: Narcotic analgesic activity in fed Sprague-Dawley rat at 120 mg/kg, sc measured at 30 mins by D'Amour-Smith tail-flick test. The format is functional. The note with it: route subcutaneous. On the technique in general: Thermal pain tests record how soon the animal reacts.
Data set [2] deals with Mus musculus. Kind of data set: Analgesic activity in sc dosed Swiss-Webster mouse assessed as reduction of acetylcholine-induced writhing. The format is functional. Conditions: Mus musculus, Swiss-Webster, sc; read-out: ED50. Background: Writhing tests count abdominal constrictions after an irritant is injected.
Data set [3] deals with Rattus norvegicus. Briefly: Toxicity in Sprague-Dawley rat assessed as tremor at 120 mg/kg, sc. The format is organism-based. On the set-up: dose 120 mg/kg, route subcutaneous. Conditions: in vivo.
Data set [4] has as its system Mus musculus. Kind of data set: Toxicity in Swiss-Webster mouse assessed as hyperactivity at 75 mg/kg, sc. Conditions: in vivo. Details: dose 75 mg/kg, route subcutaneous. The format is organism-based.
Data set [5] has as its system Rattus norvegicus. Briefly: Hypoglycemic activity in Sprague-Dawley rat assessed as reduction of blood glucose level at 88 mg/kg, po by glucagon-impaired glucose disposal test relative to control. The format is functional. On the set-up: scale not given: the % may be the effect or the level left.
Data set [6] relates to Rattus norvegicus. Kind of data set: Hypoglycemic activity in glucose loaded Sprague-Dawley rat assessed as reduction of blood glucose level at 100 mg/kg, po after 30 mins relative to control. The format is functional. On the set-up: scale not given: the % may be the effect or the level left.
For data set [7], the system named is Rattus norvegicus. Briefly: Hypoglycemic activity in glucose loaded Sprague-Dawley rat assessed as reduction of blood glucose level at 100 mg/kg, po measured at 1 hr. The format is functional, organism-based. Details: dose 100 mg/kg.
For data set [8], the system named is Rattus norvegicus. Briefly: Hypoglycemic activity in glucose loaded Sprague-Dawley rat assessed as reduction of blood glucose level at 100 mg/kg, po measured at 1.5 to 2 hrs. The format is functional, organism-based. Details: dose 100 mg/kg.
Data set [9] deals with Rattus norvegicus. Kind of data set: Hypoglycemic activity in Sprague-Dawley rat assessed as reduction of blood glucose level at 100 mg/kg, po by glucagon-impaired glucose disposal test relative to control. The format is functional. On the set-up: scale not given: the % may be the effect or the level left.
Data set [10] concerns Rattus norvegicus. Briefly: Narcotic analgesic activity in fasted Sprague-Dawley rat at 240 mg/kg, po measured at 15 mins by D'Amour-Smith tail-flick test relative to control. The format is functional.
Data set [11] concerns Mus musculus. Briefly: Analgesic activity in po dosed Swiss-Webster mouse assessed as reduction of acetylcholine-induced writhing. The format is functional.
Data set [12] in a line: Drug metabolism in glucose loaded Sprague-Dawley rat urine assessed as formation of (7)- (exo,exo)-methyl 2-(thiophen-2-yl)-8-azabicyclo[3.2.1]octane-3-carboxylate hydrochloride at 20 mg, po administered 3 to 6 hrs measured for 24 hrs by TLC/mass spectrographic analysis. The format is ADME, organism-based. Conditions: in vivo.
Data set [13] relates to Rattus norvegicus. Briefly: Analgesic activity in po dosed rat assessed as reduction of intraarterial bradykinin-induced pain response. The format is functional.
The subject of data set [14] is Rattus norvegicus. Kind of data set: Toxicity in Sprague-Dawley rat at 240 mg/kg, po. The format is organism-based. Details: dose 240 mg/kg, route oral. Conditions: in vivo.
The test system of data set [15] is Rattus norvegicus. Kind of data set: Hypoglycemic activity in Sprague-Dawley rat assessed as reduction of blood glucose level at 100 mg/kg, po by glucagon-impaired glucose disposal test in presence of opioid antagonist nalorphine. The format is functional, organism-based. On the set-up: dose 100 mg/kg.
Data set [16] deals with Rattus norvegicus. Kind of data set: Narcotic analgesic activity in fasted Sprague-Dawley rat at 240 mg/kg, po measured within 15 mins in presence of (exo,endo)-methyl 8-methyl-2-phenyl-8-azabicyclo[3.2.1]octane-3-carboxylate. On the set-up: dose 240 mg/kg. The format is functional, organism-based.
For data set [17], the system named is Rattus norvegicus. Briefly: Hypoglycemic activity in Sprague-Dawley rat assessed as reduction of blood glucose level at 100 mg/kg, po by glucagon-impaired glucose disposal test in presence of (exo,endo)-methyl 8-methyl-2-phenyl-8-azabicyclo[3.2.1]octane-3-carboxylate. The format is functional, organism-based. Details: dose 100 mg/kg.
The subject of data set [18] is Rattus norvegicus. Briefly: Hypoglycemic activity in Sprague-Dawley rat assessed as reduction of blood glucose level at 100 mg/kg, po by glucagon-impaired glucose disposal test in presence of microsomal enzyme inhibitor SKF 525-A. The format is functional, organism-based. On the set-up: dose 100 mg/kg.
Data set [19] has as its system Rattus norvegicus. Briefly: Hypoglycemic activity in glucose/glycogen loaded Sprague-Dawley rat assessed as reduction of blood glucose level at 100 mg/kg, po measured at 0.5 hrs relative to control. Details: scale not given: the % may be the effect or the level left. The format is functional.
Data set [20] deals with Rattus norvegicus. Kind of data set: Hypoglycemic activity in glucose/glycogen loaded Sprague-Dawley rat assessed as reduction of blood glucose level at 100 mg/kg, po measured at 1 hr relative to control. The format is functional. On the set-up: scale not given: the % may be the effect or the level left.
Data set [21] concerns Rattus norvegicus. Briefly: Hypoglycemic activity in glucose/glycogen loaded Sprague-Dawley rat assessed as reduction of blood glucose level at 100 mg/kg, po measured at 1.5 hrs relative to control. The format is functional. On the set-up: scale not given: the % may be the effect or the level left.
For data set [22], the system named is Rattus norvegicus. Briefly: Hypoglycemic activity in glucose/glycogen loaded Sprague-Dawley rat assessed as reduction of glucose level per 100 mL of blood at 100 mg/kg, po measured at 2 hrs (reference value: 110 +/- 10 mg/100 mL). The format is functional.
The test system of data set [23] is Rattus norvegicus. Kind of data set: Hypoglycemic activity in glucose loaded Sprague-Dawley rat assessed as reduction of blood glucose level at 100 mg/kg, po measured at 0.5 hrs relative to control. On the set-up: scale not given: the % may be the effect or the level left. The format is functional.
In data set [24] the test system is Rattus norvegicus. Briefly: Hypoglycemic activity in glucose loaded Sprague-Dawley rat assessed as reduction of blood glucose level at 100 mg/kg, po measured at 1 hr relative to control. The format is functional. Details: scale not given: the % may be the effect or the level left.
For data set [25], the system named is Rattus norvegicus. Kind of data set: Hypoglycemic activity in glucose loaded Sprague-Dawley rat assessed as reduction of blood glucose level at 100 mg/kg, po measured at 1.5 hrs relative to control. Details: scale not given: the % may be the effect or the level left. The format is functional.
The subject of data set [26] is Rattus norvegicus. Kind of data set: Hypoglycemic activity in glucose loaded Sprague-Dawley rat assessed as reduction of glucose level per 100 mL of blood at 100 mg/kg, po measured at 2 hrs (reference value: 104 +/- 4 mg/100 mL). The format is functional.
In data set [27] the test system is Rattus norvegicus. Briefly: Hypoglycemic activity in fasted Sprague-Dawley rat assessed as reduction of blood glucose level at 100 mg/kg, po measured at 0.5 hrs relative to control. On the set-up: scale not given: the % may be the effect or the level left. The format is functional.
Data set [28] concerns Rattus norvegicus. Kind of data set: Hypoglycemic activity in fasted Sprague-Dawley rat assessed as reduction of blood glucose level at 100 mg/kg, po measured at 1 hr relative to control. The format is functional. On the set-up: scale not given: the % may be the effect or the level left.
The test system of data set [29] is Rattus norvegicus. Briefly: Hypoglycemic activity in fasted Sprague-Dawley rat assessed as reduction of blood glucose level at 100 mg/kg, po measured at 1.5 hrs relative to control. The format is functional. Details: scale not given: the % may be the effect or the level left.
The subject of data set [30] is Rattus norvegicus. Kind of data set: Hypoglycemic activity in fasted Sprague-Dawley rat assessed as reduction of blood glucose level at 100 mg/kg, po measured at 2 hrs relative to control. The format is functional. On the set-up: scale not given: the % may be the effect or the level left.
In data set [31] the test system is Rattus norvegicus. Briefly: Hypoglycemic activity in glucose loaded Sprague-Dawley rat assessed as reduction of blood glucose level at 94 mg/kg, po relative to control. Details: scale not given: the % may be the effect or the level left. The format is functional.
Data set [32] concerns Rattus norvegicus. Kind of data set: Narcotic analgesic activity in fasted Sprague-Dawley rat at 240 mg/kg, po measured at 60 mins by D'Amour-Smith tail-flick test relative to control. The format is functional.
Data set [33] concerns Mus musculus. Briefly: Analgesic activity in Swiss-Webster mouse assessed as reduction of acetylcholine-induced writhing at 50 mg/kg, po relative to control. On the set-up: scale not given: the % may be the effect or the level left. The format is functional.
The subject of data set [34] is Rattus norvegicus. Kind of data set: Toxicity in Sprague-Dawley rat assessed as tremor at 240 mg/kg, po. The format is organism-based. Details: dose 240 mg/kg, route oral. Conditions: in vivo.
For data set [35], the system named is Rattus norvegicus. Briefly: Toxicity in Sprague-Dawley rat assessed as rigidity at 240 mg/kg, po. The format is organism-based. On the set-up: dose 240 mg/kg, route oral. The note with it: in vivo.

With `COC(=O)[C@H]1C[C@H]2CC[C@H]([C@H]1Cc1ccccc1)N2C.Cl`, the Activity is given as less than 20% in the data set with Rattus norvegicus [1], “Toxic” in the data set on Rattus norvegicus [3], “Toxic” with Mus musculus [4] and 21% with Rattus norvegicus [5]. Besides, the ED50 in the data set with Mus musculus [2] amounted to 5.8 mg/kg.
On to `COC(=O)[C@H]1C[C@H]2CC[C@@H]3[C@H]1c1cc(O)ccc1CN23`, for which the Activity with Rattus norvegicus [6] was 33%. Moreover, the outcome in the data set with Rattus norvegicus [7] and with Rattus norvegicus [8] was inactive.
For `CCCCCN1[C@@H]2CC[C@@H]1[C@@H](c1cccs1)[C@@H](C(=O)OC)C2.CS(=O)(=O)O`, the Activity was 60% with Rattus norvegicus [9]; 71% in the data set with Rattus norvegicus [10]; “Non-toxic” in the data set with Rattus norvegicus [14]; 60% with Rattus norvegicus [19]; 60% in the data set with Rattus norvegicus [20]; 52% in the data set on Rattus norvegicus [21]. Moreover, the Activity in the data set on Rattus norvegicus [22] was determined as 77 mg/kg; in the data set on Rattus norvegicus [23], 67%; with Rattus norvegicus [24] it was 61%; with Rattus norvegicus [25], 33%; in the data set with Rattus norvegicus [26], 76 mg/kg; in the data set with Rattus norvegicus [27], 42%. The Activity in the data set with Rattus norvegicus [28] was found to be 41%; in the data set on Rattus norvegicus [29] it was 39%; in the data set with Rattus norvegicus [30] it was 33%. Also, the ED50 was determined as 57 mg/kg with Mus musculus [11] and 17 mg/kg in the data set on Rattus norvegicus [13]. In data set [12], the Drug metabolism result is “metabolite_detected”. Besides, the outcome in the data set on Rattus norvegicus [15] and with Rattus norvegicus [17] was Active. For the same molecule, the result in the data set with Rattus norvegicus [16] and with Rattus norvegicus [18] was inactive.
Regarding `COC(=O)[C@H]1C[C@H]2CC[C@@H]3[C@H]1c1sccc1C[N+]23[O-]`, the Activity in the data set with Rattus norvegicus [31] is reported as less than 20%; in the data set with Rattus norvegicus [32], 14%; in the data set with Rattus norvegicus [10], 41%; with Mus musculus [33], 67%; in the data set on Rattus norvegicus [34] it was “Toxic”; with Rattus norvegicus [35], “Toxic”.

Source of the values: ChEMBL document CHEMBL3272053, “(exo, exo)-2-Aryltropane-3-carboxylic esters, hypoglycemic agents with accompanying analgesic activity” (J Med Chem, 1978).
